SMILES strings stand for the structures. ≈ marks a conversion by molar mass, not a printed value. *1 amine or outer side, *2 acyl side, *3 side chain or, on linkers, in order; H or OH if unused. Where a SMILES comes first, the peptide text is derived from it. [ ]: non-standard residue; d: D form. X1 = CC(Cc1ccccc1)C(N[*:1])C(=O)[*:2]; X2 = CC(C)C(N[*:1])C(C)C(=O)[*:2]; dNMeV = CN[C@@H](C(=O)O)C(C)C; dHiv = CC(C)[C@@H](O)C(=O)O; Lac = C[C@H](O)C(=O)O

Common to all, as to assay type: functional
One test relates to NCI-H460. Put plainly: Growth inhibition of human NCI-H460 cells.
The next test relates to KM-20L2. Put plainly: Growth inhibition of human KM20L2 cells.
For another test, the system named is SF-295. Put plainly: Growth inhibition of human SF295 cells.
Another test relates to SK-MEL-5. Put plainly: Growth inhibition of human SK-MEL-5 cells.
The next test concerns MCF7. Put plainly: Growth inhibition of human MCF7 cells.
For a further test, the system named is MDA-MB-435. Put plainly: Growth inhibition of human MDA-MB-435 cells.
The test system of a further test is MDA-N. Put plainly: Growth inhibition of human MDA-N cells.

Consider `CC(C)C1NC(=O)[C@@H]2CCCN2C(=O)C(C(C)Cc2ccccc2)NC(=O)[C@@H]2CCCN2C(=O)[C@@H](C(C)C)N(C)C(=O)[C@@H](C(C)C)OC(=O)[C@@H]2CCCN2C(=O)[C@H](C)OC(=O)C1C` (some centres not stated) [DOLASTATIN 16] (cyclo([Lac]P[dHiv][dNMeV]P[X1]P[X2])), for which the GI50 with NCI-H460 is 0.96 ng/mL (≈ 1.09 nM); in the test on KM-20L2 it was 1.2 ng/mL (≈ 1.37 nM); in the test on SF-295, 5.2 ng/mL (≈ 5.92 nM); in the test on SK-MEL-5, 3.3 ng/mL (≈ 3.75 nM); in the test on MCF7, 47.9 nM; in the test on MDA-MB-435, 34.7 nM. The compound also showed a 50% growth inhibitory concentration (GI50) with MDA-N of 28.8 nM.
